# In patent EP4737445A1, “NOVEL SATURATED HETEROCYCLE-SUBSTITUTED HETEROARYL-CARBONOHYDRAZONOYL DICYANIDE COMPOUND AND USE THEREOF” (Korea Institute of Science and Technology, priority 2023, dated 2025):
# Columns and labels:
# [1] = Liver microsomal stability, human; assay type: in vitro ADME; settings: 1 µM compound; 0.5 mg/mL microsomes; NADPH; 30 minutes at 37°C
# Method: Liver microsomal stability by the compounds prepared according to Examples 1 to 46 was confirmed. Specifically, four types of liver microsomes (human, dog, rat, and mouse each at 0.5 mg/mL), 0.1 M phosphate buffer solution (pH 7.4), and the compounds at 1 µM concentration were added and pre-incubated at 37°C for 5 minutes, and then NADPH generation system solution was added and incubated at 37°C for an additional 30 minutes. Thereafter, an acetonitrile solution containing an internal standard (chloropropamide) was added to terminate the reaction, and after centrifugation for 5 minutes (14,000 rpm, 4°C), the supernatant was injected into an LC-MS/MS system to analyze the substrate drug, thereby evaluating the metabolic stability of 8 compounds.
# The amount of remaining substrate through the reaction was analyzed using a Shimadzu Nexera XR system and TSQ vantage (Thermo). A Kinetex XB-C18 (2.1 × 100 mm, 2.6 µm, particle size; Phenomenex, USA) was used as the HPLC column, and (A) distilled water containing 0.1% formic acid and (B) acetonitrile containing 0.1% formic acid were used as mobile phases. Analyst software (version 1.6.3) and Xcalibur (version 1.6.1) were used for data analysis. The calculated results are shown in Table 5 below: Liver microsomal stability data of novel compounds from […] (human, rat, and mouse).
# Tau-BiFC cells = test: Cell viability (stained nuclei count) in Tau-BiFC cells; assay type: cell-based; settings: @10 µM; Tau-BiFC cell line; Forskolin-only group = 100%
# Summary of the method: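 Tau-BiFC cells were co-treated with compound (1, 3, 10 µM for screening; 0.03–30 µM for IC50) and 30 µM Forskolin for 48 h. BiFC fluorescence was normalised to the Forskolin-only window for aggregation; viability came from Hoechst-stained nuclei counts relative to Forskolin-only (100%). IC50 was derived by nonlinear regression.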
# TDP-43 BiFC cells = test: Cell viability (stained nuclei count) in TDP-43-BiFC cells; assay type: cell-based; settings: Forskolin-only group = 100%
# Summary of the method: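 Forskolin (30 µM) co-treated with compound (screen 3 and 10 µM; dose-response 0.003–10 µM) for 48 h. BiFC fluorescence normalised to Forskolin-only (100% aggregation) minus untreated; viability from Hoechst-stained nuclei count vs Forskolin-only. IC50 by nonlinear regression.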
Structure (SMILES),Human microsomes (% remaining) [1] [% remaining],Cell viability (% @10µM) (Tau-BiFC cells) [%],Cell viability (%) (@ 3 uM) (TDP-43 BiFC cells)
"Cn1c(N2CCOCC2)nc2ccc(NN=C(C#N)C#N)cc21 [Compound 5, (1-methyl-2-morpholino-1H-benzo[d]imidazol-6-yl)carbonohydrazonoyl dicyanide]",77.8,100,109.2
"CC1CN(c2nc3ccc(NN=C(C#N)C#N)cc3s2)CC(C)O1 (stereo not drawn) [Compound 10, (2-(2,6-dimethylmorpholino)benzo[d]thiazol-6-yl)carbonohydrazonoyl dicyanide]",69.4,109,83.8
"N#CC(C#N)=NNc1ccc2nc(N3CCOCC3)sc2c1 [Compound 2, (2-morpholinobenzo[d]thiazol-6-yl)carbonohydrazonoyl dicyanide]",74.3,100,87.5
"CC1COCCN1c1nc2ccc(NN=C(C#N)C#N)cc2o1 (stereo not drawn) [Compound 16, (2-(3-methylmorpholino)benzo[d]oxazol-6-yl)carbonohydrazonoyl dicyanide]",79.8,100,97.8
"COC1CCN(c2nc3ccc(NN=C(C#N)C#N)cc3o2)CC1 [Compound 17, (2-(4-methoxypiperidin-1-yl)benzo[d]oxazol-6-yl)carbonohydrazonoyl dicyanide]",16.7,100,96.9
"N#CC(C#N)=NNc1ccc2nc(NC(=O)N3CC4CCC(C3)O4)sc2c1 [Compound 40, (2-(8-oxa-3-azabicyclo[3.2.1]octane-3-carboxamido)benzo[d]thiazol-6-yl)carbonohydrazonoyl dicyanide]",94.2,98,95.6
"CC1CN(c2nc3ccc(NN=C(C#N)C#N)cc3o2)CC(C)O1 (stereo not drawn) [Compound 18, (2-(2,6-dimethylmorpholino)benzo[d]oxazol-6-yl)carbonohydrazonoyl dicyanide]",95.8,100,102.1
"N#CC(C#N)=NNc1ccc2nc(N3CC[C@@H](F)C3)oc2c1 [Compound 41, (R)-(2-(3-fluoropyrrolidin-1-yl)benzo[d]oxazol-6-yl)carbonohydrazonoyl dicyanide]",70.0,100,71.5
"N#CC(C#N)=NNc1ccc2oc(N3CCOCC3)nc2c1 [Compound 3, (2-morpholinobenzo[d]oxazol-5-yl)carbonohydrazonoyl dicyanide]",99.4,100,102.3
"N#CC(C#N)=NNc1ccc2nc(N3CC4CCC(C3)O4)sc2c1 [Compound 23, (2-(8-oxa-3-azabicyclo[3.2.1]octan-3-yl)benzo[d]thiazol-6-yl)carbonohydrazonoyl dicyanide]",85.6,92,81.1
"N#CC(C#N)=NNc1ccc2nc(N3C4CCC3COC4)sc2c1 [Compound 11, (2-(3-oxa-8-azabicyclo[3.2.1]octan-8-yl)benzo[d]thiazol-6-yl)carbonohydrazonoyl dicyanide]",81.3,100,80.9
"N#CC(C#N)=NNc1ccc2nc(N3CC4CCC(C3)O4)oc2c1 [Compound 26, (2-(8-oxa-3-azabicyclo[3.2.1]octan-3-yl)benzo[d]oxazol-6-yl)carbonohydrazonoyl dicyanide]",96.3,99,76.1
"N#CC(C#N)=NNc1ccc2sc(N3CCOCC3)nc2c1 [Compound 1, (2-morpholinobenzo[d]thiazol-5-yl)carbonohydrazonoyl dicyanide]",91.2,100,87.5
"CC(=O)N1CCN(c2nc3ccc(NN=C(C#N)C#N)cc3o2)CC1 [Compound 31, (2-(4-acetylpiperazin-1-yl)benzo[d]oxazol-6-yl)carbonohydrazonoyl dicyanide]",99.9,100,82.7
"N#CC(C#N)=NNc1ccc2nc(NC(=O)N3CCOCC3)sc2c1 [Compound 38, (2-(morpholine-4-carboxamido)benzo[d]thiazol-6-yl)carbonohydrazonoyl dicyanide]",87.6,97,111.9
"N#CC(C#N)=NNc1ccc2nc(N3C4CCC3COC4)oc2c1 [Compound 20, (2-(3-oxa-8-azabicyclo[3.2.1]octan-8-yl)benzo[d]oxazol-6-yl)carbonohydrazonoyl dicyanide]",> 100,96,75.4
"CC1CN(c2nc3ccc(NN=C(C#N)C#N)cc3o2)CCO1 (stereo not drawn) [Compound 15, (2-(2-methylmorpholino)benzo[d]oxazol-6-yl)carbonohydrazonoyl dicyanide]",> 100,100,105.2
